This is an account of results in the NIST ThermoML archive (doi:10.1021/je030101n).

For data set [1] the following is noted: 101.3 kPa, Liquid; for viscosity: Capillary tube (Ostwald / Ubbelohde) method; for mass density: Pycnometric method.
Data set [2] in a line: xn = mol fraction of the nth substance listed. As to conditions: 101.3 kPa, Liquid, x1 = 1; for viscosity: Capillary tube (Ostwald / Ubbelohde) method; for mass density: Pycnometric method.

± gives the expanded uncertainty stated by the source.

Consider `Nc1ccccc1` [aniline], for which the viscosity in data set [1] (298.15 K) was 3.69 ± 0.028 mPa·s; in data set [1] (303.15 K) it was 3.19 ± 0.024 mPa·s; in data set [1] (308.15 K), 2.8 ± 0.021 mPa·s; in data set [1] (313.15 K), 2.42 ± 0.018 mPa·s. The mass density in data set [1] (298.15 K) stood at 1017.2 ± 0.6 kg/m3; in data set [1] (303.15 K), 1012.9 ± 0.6 kg/m3; in data set [1] (308.15 K) it was 1008.6 ± 0.6 kg/m3; in data set [1] (313.15 K) it was 1004.2 ± 0.6 kg/m3.
For `N#Cc1ccccc1` [benzonitrile], the viscosity in data set [1] (298.15 K) was found to be 1.171 ± 0.009 mPa·s; in data set [1] (303.15 K), 1.126 ± 0.009 mPa·s; in data set [1] (308.15 K), 1.068 ± 0.009 mPa·s; in data set [1] (313.15 K), 1.001 ± 0.008 mPa·s. Moreover, the mass density came out at 1000.9 ± 0.6 kg/m3 in data set [1] (298.15 K), 996.4 ± 0.6 kg/m3 in data set [1] (303.15 K), 991.9 ± 0.6 kg/m3 in data set [1] (308.15 K) and 987.2 ± 0.6 kg/m3 in data set [1] (313.15 K).
For `CN(C)C=O` [dimethylformamide], the viscosity in data set [1] (298.15 K) came out at 0.803 ± 0.006 mPa·s; in data set [1] (303.15 K), 0.756 ± 0.005 mPa·s; in data set [1] (308.15 K), 0.71 ± 0.005 mPa·s; in data set [1] (313.15 K), 0.673 ± 0.005 mPa·s. For the same molecule, the mass density in data set [1] (298.15 K) is 944.5 ± 0.3 kg/m3; in data set [1] (303.15 K), 939.8 ± 0.3 kg/m3; in data set [1] (308.15 K), 935.1 ± 0.3 kg/m3; in data set [1] (313.15 K), 930.2 ± 0.3 kg/m3.
As for `CN(C)C=O` [dimethylformamide] + N#Cc1ccccc1, the viscosity in data set [2] (298.15 K) came to 0.803 ± 0.006 mPa·s; in data set [2] (303.15 K), 0.756 ± 0.005 mPa·s; in data set [2] (308.15 K) it was 0.71 ± 0.005 mPa·s; in data set [2] (313.15 K), 0.673 ± 0.005 mPa·s. Moreover, the mass density in data set [2] (298.15 K) is on record as 944.5 ± 0.3 kg/m3; in data set [2] (303.15 K) it was 939.8 ± 0.3 kg/m3; in data set [2] (308.15 K), 935.1 ± 0.3 kg/m3; in data set [2] (313.15 K), 930.2 ± 0.3 kg/m3.
`CN(C)C=O` [dimethylformamide] + Nc1ccccc1: the viscosity in data set [2] (298.15 K) turned out to be 0.803 ± 0.006 mPa·s; in data set [2] (303.15 K), 0.756 ± 0.005 mPa·s; in data set [2] (308.15 K) it was 0.71 ± 0.005 mPa·s; in data set [2] (313.15 K), 0.673 ± 0.005 mPa·s. The mass density in data set [2] (298.15 K) is on record as 944.5 ± 0.3 kg/m3; in data set [2] (303.15 K), 939.8 ± 0.3 kg/m3; in data set [2] (308.15 K), 935.1 ± 0.3 kg/m3; in data set [2] (313.15 K) it was 930.2 ± 0.3 kg/m3.
